The text below walks through data of patent US11091429B2, “Organic compounds” (Givaudan SA, priority 2012, dated 2021).

The nature of one assay: Test in lemon beverage. The settings on record: 1 ppm; water, 7% sucrose, 0.15% citric acid, lemon flavor. Here is the method:
(§1) Samples were evaluated by expert tasters. Tasters were asked to describe the samples focusing on authentic taste, mouthfeel, fullness, salty-ness, salivation, umami, sweetness, juiciness, richness, long lastingness and fattiness.
Basis water, 7% sucrose, 0.15% citric acid, proprietary lemon flavor
(§2) Samples were evaluated by expert tasters. Tasters were asked to describe the samples focusing on authentic taste, mouthfeel, fullness, salty-ness, salivation, umami, sweetness, juiciness, richness, long lastingness and fattiness

Assay [1] in a line: Tasting in mango juice drink, 1% clear mango juice. The settings on record: 0.5 ppm, 8% sucrose, 0.1% citric acid, mango flavour 0.05%. Here is the method:
Comparison in a Mango Juice Drink
Base is 8% sucrose, 0.1% citric acid, 1% clear mango juice, and a proprietary mango flavour at 0.05%.
as §1
Base is water, 8% sucrose, 0.1% citric acid, 1% clear mango juice, proprietary mango flavour @ 0.05%
(§3) Samples were evaluated by expert tasters. Tasters were asked to describe the samples focusing on authentic taste, mouthfeel, fullness, salivation, salty-ness, umami, sweetness, juiciness, richness, long lastingness and fattiness.
Base is water, 8% sucrose, 0.1% citric acid, 1% clear mango juice, proprietary mango flavour @0.05%
as §2
Base is 8% sucrose, 0.1% citric acid, 1% clear mango juice, proprietary mango flavour @ 0.05%
(§4) Samples were evaluated by expert tasters. Tasters were asked to describe the samples focusing on authentic taste, mouth feel, fullness, salivation, salty-ness, umami, sweetness, juiciness, richness, long lastingness and fattiness
Base is water, 8% sucrose, 0.1% citric acid, 1% clear mango juice, proprietary mango flavour @ 0.05%.
Test in a Mango Juice Drink

A short description of assay [2]: Tasting in mango still beverage, 4% clear mango juice. As to conditions: 0.5 ppm; 4% clear mango juice (30% reduced juice). Here is the method:
(§5) Mango Flavoured Still Beverage Containing Different Levels of Juice,
(§6) In a Mango flavoured still beverage, sweetened with 8% sucrose and containing 0.1% citric acid and 1%, 4% and 6% clear mango juice flavoured with a proprietary Mango flavour @ 0.05%, C18:2-gaba and C18:2-Pro were added, as such (separate) and in combination.
(§7) All samples were evaluated by expert tasters. Tasters were asked to describe the samples focusing on authentic taste, juicy mouthfeel, enhancement, richness, juiciness, long lastingness, salivation, sweetness.
In a Mango flavoured still beverage, sweetened with 8% sucrose & containing 0.1% citric acid and 4% clear mango juice flavoured with Mango flavour @ 0.05%, C18:2-gaba and C18:2-Pro were added, as such (separate) and in combination.
Base is water, 8% sucrose, 0.1% citric acid, 4% clear mango juice (30% reduced juice), flavoured with Mango flavor, dosed at 0.05%

The next assay can be described thus: Test in orange beverage. The settings on record: 1 ppm; water, 7% sugar (8% sucrose elsewhere in the source), 0.1% citric acid, orange flavour 0.06%. The method, then:
as §1
Base is water, 7% sugar, 0.1% citric acid, proprietary orange flavour @ 0.06%.
as §2
Base is water, 7% sugar, 0.1% citric acid, proprietary orange flavour @ 0.06%
as §4
Samples were evaluated by expert tasters. Tasters were asked to describe the samples focusing on authentic taste, mouthfeel, fullness, salivation, sweetness, juiciness, richness, long lastingness and fattiness
Comparison in an Orange Drink
Base: water, 8% sucrose, 0.1% citric acid, proprietary orange flavour @ 0.06%.

Another assay is described as follows: Test on Tang. The settings on record: 1 ppm, orange flavoured Tang. The method, then:
In an orange flavoured Tang powdered soft drink (market product) sweetened with sucrose plus high intensity sweetener and containing citric acid, C18:2-gaba and C18:2-pro were tested.
All samples were evaluated by expert tasters. Tasters were asked to describe the samples focusing on authentic taste, mouthfeel & body, enhancement, richness, juiciness, long lastingness, salivation, sweetness, masking off notes of high intensity sweetener
Base is Orange Flavoured Tang

The nature of assay [3]: Tasting in mango still beverage, 6% clear mango juice. The settings on record: 0.5 ppm; 6% clear mango juice (full juice). Here is the method: as §5, §6, §7
In a Mango-flavoured still beverage, sweetened with 8% sucrose & containing 0.1% citric acid and 6% clear mango juice flavoured with Mango flavour@0.05%, C18:2-gaba and C18:2-Pro were added, as such (separate) and in combination.
Base is water, 8% sucrose, 0.1% citric acid, 6% clear mango juice (full juice), flavoured with Mango flavor, dosed at 0.05%.

Assay [4] is described as follows: Test in pear flavoured drink. As to conditions: 1 ppm; water, 7% sugar (8% elsewhere in the source), 0.1% citric acid, pear flavour 0.025%. The method, then: (§8) Samples were prepared and evaluated by expert tasters. Tasters were asked to describe the samples focusing on authentic taste, mouthfeel, fullness, salty-ness, salivation, umami, sweetness, juiciness, richness, long lastingness and fattiness.
Test in Pear Flavoured Drink:
Base: water, 7% sugar, 0.1% citric acid, proprietary pear flavour at 0.025%
as §1
Comparison in a Pear Drink
Base is water, 8% sugar, 0.1% citric acid, proprietary pear flavour at 0.025%

A short description of assay [5]: Tasting in strawberry flavoured sugar sweetened yoghurt. The settings on record: 2 ppm, 1.5% fat yoghurt, 8% sucrose, strawberry flavour 0.015%. Here is the method:
Strawberry Flavoured Sugar Sweetened Yoghurt
In a 1.5% fat yoghurt base, sweetened with 8% sucrose by weight, flavoured with a proprietary strawberry flavour @ 0.015% several different N-acyl aminoacids were added.
as §8
Test in a Strawberry Yoghurt
Base: Yoghurt 1.5% fat yoghurt, 8% sucrose, proprietary strawberry flavour @ 0.015%
as §3

Assay [6] in a line: Test in pineapple flavoured drink. The settings on record: 1 ppm; water, 8% sugar, 0.1% citric acid, pineapple flavour 0.03%. Here is the method:
as §8
Test in Pineapple Flavoured Drink:
Base is water, 8% sugar, 0.1% citric acid and proprietary pineapple flavour at 0.03%
as §1

Assay [7] in a line: Tasting in strawberry drink. The settings on record: 0.5 ppm; 7% sucrose, 0.1% citric acid, strawberry flavour 0.015%. The method, then:
as §8
Comparison in a Strawberry Drink
Base is 7% sucrose, 0.1% citric acid, and a proprietary strawberry flavour @ 0.015%
as §1
Base is water, 7% sucrose, 0.1% citric acid, proprietary strawberry flavour @ 0.015%
as §3
Test in a Strawberry Drink
Base is 7% sucrose, 0.1% citric acid, proprietary strawberry flavour @ 0.015%

A short description of assay [8]: Tasting in vanilla milk 0.15% fat. As to conditions: 1 ppm, 4% sucrose, Vaniline 10 ppm + vanilla extract 0.03%. Here is the method: as §8
Base: Milk 0.15% fat, sweetened with 4% sucrose by weight, flavoured with proprietary
Vaniline flavour @ 10 ppm+Vanilla ext. @ 0.03%
as §1
Comparison in a Vanilla Milk Drink
Vaniline @ 10 ppm+Vanilla extract @ 0.03%
Base: Milk 0.15% fat, sweetened with 4% sucrose by weight, flavoured with proprietary Vaniline @ 10 ppm+Vanilla extract @ 0.03%

On to `CCCCC/C=C\C/C=C\CCCCCCCC(=O)N1CCC[C@H]1C(=O)O` [C18:2-Pro, N-linoleoyl-Pro], for which the tasting result in the assay “Test in lemon beverage” is “very juicy, more citral like, very authentic”; in assay [1] it was “more sweet, sugar-like, very juicy and long lasting sweet, salivating”; in assay [2] it was “more sweet, sugar-like, very juicy and long lasting sweet, salivating”; in “Test in orange beverage”, “very juicy, authentic orange”; in the assay “Test on Tang” it was “very fresh, enhances sweet juicy orange notes, characteristic of authentic fresh orange fruit. Additionally, the off-notes of the high intensity sweetener were suppressed”; in assay [3] it was “more sweet, sugar-like, very juicy and long lasting sweet, salivating, syrupy”.
Regarding `CCCCC/C=C\C/C=C\CCCCCCCC(=O)N[C@@H](CC(N)=O)C(=O)O` [C18:2-asn, N-linoleoyl-Asn], the tasting result is recorded as “very ripe, authentic pear, very juicy, long lasting” in assay [4]; “green fresh, nice, fatty nice fuller” in [5]; “very ripe, jammy, long lasting, authentic” in assay [6]; “fuller, sweeter, jammy aftertaste, long lasting” in assay [7]; “sweeter more fatty round” in [8].
